Literature values in US20030232784A1, “Hyaluronic acid-associated superoxide dismutase mimics and their use in the treatment of joint pain” (priority 2002, published 2003).

System: patients with active classical rheumatoid arthritis

Orgotein®: a bovine SOD with a Cu/Zn catalytic site
effect on rheumatoid arthritis symptoms (intraarticular injection, patients with active classical rheumatoid arthritis): ameliorated a number of symptoms
immunogenicity (reason for removal from the market): development of immune responses against the bovine enzyme
